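The compound was tested at five concentrations on cells cultured in 96-well plates, with a 48-hour exposure period. TGI is the concentration that stops growth completely.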
How the values were obtained:
Assay in all cases: growth of human tumour cells (NCI), 48 h
HL-60(TB) leukemia = system: HL-60(TB) leukemia
SN12C renal = system: SN12C renal
HT29 colon = system: HT29 colon
OVCAR-5 ovarian = system: OVCAR-5 ovarian
CCRF-CEM leukemia = system: CCRF-CEM leukemia
UACC-62 melanoma = system: UACC-62 melanoma
T-47D breast = system: T-47D breast
SK-MEL-28 melanoma = system: SK-MEL-28 melanoma
A498 renal = system: A498 renal
OVCAR-3 ovarian = system: OVCAR-3 ovarian
PC-3 prostate = system: PC-3 prostate
MDA-N = system: MDA-N
NCI-H460 lung = system: NCI-H460 lung
HCT-15 colon = system: HCT-15 colon
A549 NSCLC = system: A549 NSCLC
SR leukemia = system: SR leukemia
HS 578T breast = system: HS 578T breast
SNB-19 CNS = system: SNB-19 CNS
MALME-3M melanoma = system: MALME-3M melanoma
NCI-H522 lung = system: NCI-H522 lung
ACHN renal = system: ACHN renal
RXF 393 renal = system: RXF 393 renal
K-562 leukemia = system: K-562 leukemia
OVCAR-8 ovarian = system: OVCAR-8 ovarian
NCI-H226 lung = system: NCI-H226 lung
SK-MEL-2 melanoma = system: SK-MEL-2 melanoma
MDA-MB-435 = system: MDA-MB-435
786-0 renal = system: 786-0 renal
BT-549 breast = system: BT-549 breast
SK-MEL-5 melanoma = system: SK-MEL-5 melanoma
U251 CNS = system: U251 CNS
SF-268 CNS = system: SF-268 CNS
IGROV1 ovarian = system: IGROV1 ovarian
SF-295 CNS = system: SF-295 CNS
NCI/ADR-RES ovarian = system: NCI/ADR-RES ovarian
MOLT-4 leukemia = system: MOLT-4 leukemia
SW-620 colon = system: SW-620 colon
TK-10 renal = system: TK-10 renal
UO-31 renal = system: UO-31 renal
LOX IMVI melanoma = system: LOX IMVI melanoma
HOP-92 NSCLC = system: HOP-92 NSCLC
UACC-257 melanoma = system: UACC-257 melanoma
EKVX NSCLC = system: EKVX NSCLC
HOP-62 NSCLC = system: HOP-62 NSCLC
M14 melanoma = system: M14 melanoma
HCT-116 colon = system: HCT-116 colon
MDA-MB-231 breast = system: MDA-MB-231 breast
NCI-H23 lung = system: NCI-H23 lung
OVCAR-4 ovarian = system: OVCAR-4 ovarian
KM12 colon = system: KM12 colon
COLO 205 colon = system: COLO 205 colon
SF-539 CNS = system: SF-539 CNS
HCC-2998 colon = system: HCC-2998 colon
SK-OV-3 ovarian = system: SK-OV-3 ovarian
DU-145 prostate = system: DU-145 prostate
CAKI-1 renal = system: CAKI-1 renal
MCF7 breast = system: MCF7 breast
RPMI-8226 leukemia = system: RPMI-8226 leukemia

For `COc1cc(NCCC(=O)O)c2ncccc2c1`, the TGI (HL-60(TB) leukemia) was over 100 µM, the TGI (SN12C renal) was over 100 µM and the TGI (HT29 colon) was over 100 µM. For the same compound, the TGI (OVCAR-5 ovarian) was over 100 µM, the TGI (CCRF-CEM leukemia) was over 100 µM and the TGI (UACC-62 melanoma) was over 100 µM. It also gave a TGI (T-47D breast) of over 100 µM, a TGI (SK-MEL-28 melanoma) of over 100 µM and a TGI (A498 renal) of over 100 µM. The TGI (OVCAR-3 ovarian) was over 100 µM, the TGI (PC-3 prostate) was over 100 µM and the TGI (MDA-N) was over 100 µM. It also gave a TGI (NCI-H460 lung) of over 100 µM, a TGI (HCT-15 colon) of over 100 µM and a TGI (A549 NSCLC) of over 100 µM. It also gave a TGI (SR leukemia) of over 100 µM, a TGI (HS 578T breast) of over 100 µM and a TGI (SNB-19 CNS) of over 100 µM. It also gave a TGI (MALME-3M melanoma) of over 100 µM, a TGI (NCI-H522 lung) of over 100 µM and a TGI (ACHN renal) of over 100 µM. The TGI (RXF 393 renal) was over 100 µM, the TGI (K-562 leukemia) was over 100 µM and the TGI (OVCAR-8 ovarian) was over 100 µM. The TGI (NCI-H226 lung) was over 100 µM, the TGI (SK-MEL-2 melanoma) was over 100 µM and the TGI (MDA-MB-435) was over 100 µM. The TGI (786-0 renal) was over 100 µM, the TGI (BT-549 breast) was over 100 µM and the TGI (SK-MEL-5 melanoma) was over 100 µM. It also gave a TGI (U251 CNS) of over 100 µM, a TGI (SF-268 CNS) of over 100 µM and a TGI (IGROV1 ovarian) of over 100 µM. It also gave a TGI (SF-295 CNS) of over 100 µM, a TGI (NCI/ADR-RES ovarian) of over 100 µM and a TGI (MOLT-4 leukemia) of over 100 µM. For the same compound, the TGI (SW-620 colon) was over 100 µM, the TGI (TK-10 renal) was over 100 µM and the TGI (UO-31 renal) was over 100 µM. The TGI (LOX IMVI melanoma) was over 100 µM, the TGI (HOP-92 NSCLC) was over 100 µM and the TGI (UACC-257 melanoma) was over 100 µM. It also gave a TGI (EKVX NSCLC) of over 100 µM, a TGI (HOP-62 NSCLC) of over 100 µM and a TGI (M14 melanoma) of over 100 µM. For the same compound, the TGI (HCT-116 colon) was over 100 µM, the TGI (MDA-MB-231 breast) was over 100 µM and the TGI (NCI-H23 lung) was over 100 µM. For the same compound, the TGI (OVCAR-4 ovarian) was over 100 µM.

With `c1ccc(C2=NN=C3C(c4ccccc4)=Nc4ccccc4N3C2)cc1` the TGI (HL-60(TB) leukemia) was 22.2 µM, the TGI (SN12C renal) was over 100 µM and the TGI (HT29 colon) was over 69.6 µM. The TGI (KM12 colon) was over 100 µM, the TGI (OVCAR-5 ovarian) was over 94.3 µM and the TGI (CCRF-CEM leukemia) was 20.2 µM. It also gave a TGI (UACC-62 melanoma) of over 100 µM, a TGI (T-47D breast) of over 100 µM and a TGI (SK-MEL-28 melanoma) of over 100 µM. For the same compound, the TGI (A498 renal) was over 100 µM, the TGI (OVCAR-3 ovarian) was over 24.5 µM and the TGI (COLO 205 colon) was 52.8 µM. For the same compound, the TGI (PC-3 prostate) was over 100 µM, the TGI (MDA-N) was over 100 µM and the TGI (NCI-H460 lung) was 23.5 µM. For the same compound, the TGI (HCT-15 colon) was over 100 µM, the TGI (SF-539 CNS) was over 100 µM and the TGI (A549 NSCLC) was over 100 µM. It also gave a TGI (HCC-2998 colon) of over 100 µM, a TGI (HS 578T breast) of 67.5 µM and a TGI (SNB-19 CNS) of over 100 µM. For the same compound, the TGI (MALME-3M melanoma) was 97.9 µM, the TGI (NCI-H522 lung) was 22.8 µM and the TGI (ACHN renal) was over 100 µM. The TGI (RXF 393 renal) was over 100 µM, the TGI (K-562 leukemia) was over 100 µM and the TGI (OVCAR-8 ovarian) was over 100 µM. It also gave a TGI (SK-OV-3 ovarian) of over 100 µM, a TGI (DU-145 prostate) of over 100 µM and a TGI (NCI-H226 lung) of over 70.2 µM. The TGI (SK-MEL-2 melanoma) was over 82.2 µM, the TGI (MDA-MB-435) was 98.7 µM and the TGI (786-0 renal) was over 100 µM. The TGI (BT-549 breast) was over 100 µM, the TGI (SK-MEL-5 melanoma) was 40.7 µM and the TGI (CAKI-1 renal) was over 100 µM. For the same compound, the TGI (U251 CNS) was over 100 µM, the TGI (SF-268 CNS) was over 60.2 µM and the TGI (IGROV1 ovarian) was over 100 µM. For the same compound, the TGI (NCI/ADR-RES ovarian) was over 100 µM, the TGI (MOLT-4 leukemia) was over 52.3 µM and the TGI (SW-620 colon) was over 100 µM. It also gave a TGI (TK-10 renal) of 43.4 µM, a TGI (UO-31 renal) of over 59.4 µM and a TGI (LOX IMVI melanoma) of over 100 µM. It also gave a TGI (HOP-92 NSCLC) of over 88.9 µM, a TGI (MCF7 breast) of over 77.4 µM and a TGI (UACC-257 melanoma) of 32.4 µM. It also gave a TGI (EKVX NSCLC) of over 68.6 µM, a TGI (HOP-62 NSCLC) of over 100 µM and a TGI (M14 melanoma) of 50.4 µM. The TGI (HCT-116 colon) was over 95.6 µM, the TGI (MDA-MB-231 breast) was over 100 µM and the TGI (NCI-H23 lung) was over 100 µM. For the same compound, the TGI (OVCAR-4 ovarian) was 42 µM and the TGI (RPMI-8226 leukemia) was 40.8 µM.

— PubChem BioAssay (NCI)
